How the values were obtained:
α-TN4 = assay: Snail up-regulation in α-TN4 lens epithelial cell line after TGF-β addition; format: cell-based, mouse; details: prior to up-regulation of αSMA
ARPE-19 cells [1] = assay: Production of PDGF, TGF-β1 and collagen type I in ARPE-19 cells treated with TGF-β2; format: cell-based, human; details: for amount of type I collagen in culture medium and cell lysate (ELISA): 48 hr
Method: Expression of PDGF-BB in ARPE-19 cells was assessed by western blot of cell lysates using PDGF-B (H-55, Santa Cruz Biotechnology, Inc.). Enzyme-linked immunosorbent assays (ELISAs) for PDGF-BB, PDGF-AB and TGF-β1 (R & D Systems, Inc., Minneapolis, Minn.) were used to determine the concentration of each peptide in the culture medium. ARPE-19 cells were grown in 6-well plates to near confluence and then cultured in 500 μl of serum-free DMEM/F-12 supplemented with antibiotics in the presence or absence of human recombinant TGF-β2 (1.0 ng/ml R & D Systems, Inc., Minneapolis, Minn.) for 48 or 96 hrs. Nine wells were prepared for each culture condition. Medium was processed for ELISAs for determination of the concentration of PDGF-BB and -AB according to the manufacturers' protocols. Medium (48 hr) was also processed for the determination of TGF-β1 by an ELISA kit (R & D Systems, Minneapolis, Minn.). Type I collagen was quantified in medium and sonicated cell lysates (48 hr) and processed for an ELISA system for type I collagen C-terminal peptide (PIP ELISA kit, Takara, Tokyo, Japan). Confluent cells grown on a chamber slides (Nunc) were immunostained for collagen type I (1:100 dilution in PBS, Southern Biotechnology).

[2] = test system: renal tubular epithelial cells; assay: TGF-β1-induced EMT and autoinduction in primary culture of renal tubular epithelial cells; format: cell-based, mouse; details: wild-type cells, TGF-β1 10 ng/ml
Method: Minced kidneys were washed with 3 changes of cold PBS containing 1 mM EDTA and digested in 0.25% trypsin solution (Gibco BRL, Grand Island, N.Y.) in a shaking incubator at 37° C. for 2 h. Trypsin was neutralized with growth medium (DMEM/10% FBS containing 100 unit/ml penicillin and 0.1 mg/ml streptomycin). The suspension was triturated by pipetting and passed through a 100 μm cell strainer (Becton Dickinson Labware, Franklin Lakes, N.J.). The filtrate consisting mostly of dispersed renal tubules was plated onto culture dishes (Nalge Nunc International, Naperville, Ill.) and 2-well chamber slides (Nunc Lab-Tek II-CC2, Nalge Nunc International), and incubated at 37° C. in a CO2 incubator with medium changes every 2 days. Experiments were carried out in serum-free DMEM. EMT was induced by an addition of 10 ng/ml TGF-β1 (R&D Systems, Minneapolis, Minn.). Mouse monoclonal anti-TGF-β neutralizing antibody (clone: 1D11, R & D Systems) was used at a concentration of 20 μg/ml with mouse IgG (Sigma, St Louis, Mo.) as a control.
Histological sections were prepared from tissues fixed in 4% paraformaldehyde in 0.1 M phosphate buffer, pH 7.4, and embedded in paraffin. Cryosections and bottom sheets of BioFlex were fixed in cold acetone and subjected to indirect immunofluorescence with anti-E-cadherin (clone: DECMA-1, Sigma, St Louis, Mo.), anti-α-SMA (clone: 1A4, NeoMarkers, Fremont, Calif.), anti-mouse type I collagen (Southern Biotechnology, Birmingham, Ala.) and anti-mouse F4/80 antibodies (clone: A3-1, BMA, Augst, Switzerland). As second antibodies, FITC-anti-rat IgG (Sigma), TRITC-anti-mouse IgG (Sigma) or Cy3-anti-goat IgG (Sigma) were used.
Cells and tissues were lysed in buffer containing 1% Nonidet P-40, 25 mM Tris-HCl, pH 7.5, 150 mM NaCl, 10 mM EDTA and 1:50 dilution of a protease inhibitor cocktail (P-2714, Sigma). Proteins were separated by SDS-PAGE, transferred to nitrocellulose membranes, and blocked in 5% skim milk in PBS. After incubation with primary antibodies against E-cadherin (clone: 36, Transduction Laboratories, Lexington, Ky.), α-SMA (clone: 1A4) and actin antibodies (Sc-1616, Santa Cruz Biochemicals, Santa Cruz, Calif.), blots were reacted with POD-conjugated goat anti-mouse IgG secondary antibody (Sigma) and developed with ECL (Amersham Biosciences, Buckingshire, UK).
Total RNA was extracted with TRIzol reagent (Invitrogen, Carlsbad, Calif.). RNA (20 μg/lane), separated in 1% agarose-formaldehyde gels and transferred to Hybond-HX nylon membranes (Amersham). Membranes were hybridized with cDNA probes for mouse Snail and TGF-β1 mRNA labeled with [P^32] dCTP by random primed DNA synthesis using the same primers as above (Rediprime II, Amersham Pharmacia Inc., Piscataway, N.J.). Filters were exposed to X-ray film at −80° C. for 2 to 3 d. […]

ARPE-19 cells [3] = assay: Proliferation of ARPE-19 cells (MTT assay); format: cell-based, human; details: sparse cultures, up to 120 hr; PDGF-BB 5 ng/ml, TGF-β2 1 ng/ml
Method: Effects of adding TGF-β2, PDGF-BB, and/or anti-PDGF-B-neutralizing antibody on proliferation of ARPE-19 cells were assessed using the MTT assay (TACS MTT Cell Proliferation Assay Kit, Trevigen, Gaithersburg, Md., USA) according to manufacturer's instruction. ARPE 19 cells suspended in DMEM/F-12 supplemented with 15% fetal calf serum (2×10^4/100 μl/well) were seeded in 96-well culture plates (8 wells for each condition). After 12 hrs cells were changed to 100 μl serum-free culture medium and cultured for an additional 120 hr supplemented with PDGF-BB (5.0 ng/ml) or TGF-β2 (1.0 ng/ml), with either neutralizing anti-PDGF-B antibody (20 μg/ml) or non-immune IgG (20 μg/ml) as control. At the end of each culture interval, MTT reagent (10 μl) was added to each well and the incubation continued for an additional 5 hr at 37° C. Optical density at 570 nm was measured 4 hr after adding the lysis solution contained in the kit.

lens epithelium = assay: Organ-culture of mouse lenses with TGF-β2; format: cell-based; details: TGF-β2 10 ng/ml, not KO
Method: The crystalline lens was carefully removed from enucleated eyes of adult Smad3-KO or WT mice and processed for organ-culture as previously described (Saika, S. et al. 2003 Invest Ophthalmol Vis Sci 44: 2094-2102). Three lenses were used in each culture condition. The lens was incubated in DMEM supplemented with antibiotics in the presence and absence of porcine TGF-β2 (10 ng/ml) with a medium change every 2 days. After 5 or 10 days of culture, the tissue was fixed in 2.0% paraformaldehyde as described above. Paraffin sections were processed for histology and immunohistochemistry.
Sections (5 μm) were deparaffinized and stained with hematoxylin and eosin (HE) alone or with polyclonal antibodies against collagen types I and V (both 1:100 dilution in PBS, Southern Biotechnology, Birmingham, Ala.), rabbit polyclonal anti-lumican antibody (10 μg/ml)(Saika, S. et al. 2000 J Biol Chem 275: 2607-2612), or with a mouse monoclonal anti-αSMA antibody (1:100 dilution in PBS, NeoMarker, Fremont, Calif., USA), rabbit polyclonal antibodies against the TGF-β isoforms as previously reported (Flanders, K. C. et al. 1991 Development 113: 183-191), or with non-immune IgG (control). After binding of labeled secondary antibody and the color reaction with 3,3′-diaminobenzidine, sections were counterstained with methyl green and mounted in balsam. […]

[4] = test system: primary porcine RPE cells; assay: EMT in primary cultures of porcine RPE cells (αSMA immunostaining); format: cell-based; details: TGF-β2 10 ng/ml, 48 hr; not in its absence
Method: Cultures of primary porcine RPE cells were prepared by aspirating RPE layers from a hemi-sectioned pig eye after removing the retina by using a micropipette, and putting the aspirate in a 30-mm diameter collagen-coated plastic culture dish to allow the epithelial cells to outgrow. After reaching confluence, the cells were trypsinized, suspended in Dulbecco's modified Eagle's essential medium (DMEM) supplemented with 10% fetal calf serum, and seeded on fibronectin-coated chamber slides (Falcon, Becton Dickinson, Lincoln Park, N.J.) in the presence and absence of 10 ng/ml of porcine TGF-β2 (R & D systems Inc., Minneapolis, Minn.). At 24 hr culture intervals the cells were fixed and immunostained for αSMA.

ARPE-19 cells [5] = assay: EMT and Smad phosphorylation in ARPE-19 cells; format: cell-based, human
Excerpt: (§1) The ARPE-19 human RPE cell line (ATCC # CRL-2302) (Dunn, K. C. et al. 1996 Exp Eye Res 62:155-169) was used to assess effects of […] TGF-β2 on expression of αSMA and Smad3 activation as previously described (EXAMPLE 1). Effect of addition of TGF-β2 on ARPE-19 cell migration was examined by using a model of in vitro closure of a monolayer cell sheet as previously reported (Saika, S. et al. 1995 Graefes Arch Clin Exp Ophthalmol 233:347-353).

RPE cells = assay: Wounding of the RPE cell layer in organ-cultured mouse globes; format: cell-based; details: TGF-β2 10 ng/ml, WT posterior segments; KO negative
Method: Both eyes were enucleated immediately after being sacrificed as described above. Anterior eye segment structures (cornea and lens) and retina were carefully removed from the globe. After the RPE cell layer had been wounded by scraping using a silicone needle, the tissue was cultured in Eagle's medium supplemented with 10% fetal calf serum in the presence or absence of human recombinant TGF-β2 at 10 ng/ml for 48 hr. The tissue was fixed and embedded in paraffin as previously described (Example 1).
Sections (5 μm) were deparaffinized and stained with hematoxylin and eosin (HE) alone or with polyclonal antibodies against collagen type VI (1:100 dilution in PBS, Southern Biotechnology, Birmingham, Ala.), rabbit polyclonal anti-lumican antibody (10 μg/ml (Saika, S. et al. 2000 J Biol Chem 275:2607-2612)), mouse monoclonal anti-αSMA antibody (1:100 dilution in PBS, NeoMarker, Fremont, Calif., USA), goat polyclonal anti-PDGF-B antibody (1:200 dilution in PBS, Santa Cruz), mouse monoclonal anti-proliferating cell nuclear antigen (PCNA) antibody (1:100 dilution in PBS, Santa Cruz) or with non-immune IgGs (control). After binding of FITC-labeled secondary antibodies (1:100 dilution in PBS, Cappel ICN, Aurora, Ohio, USA), the specimens were observed under fluorescent microscopy followed by mounted with VectaShield with nuclear DAPI staining. […]

ARPE-19 cells [6] = assay: ARPE-19 cell migration, in vitro closure of a defect in a monolayer cell sheet; format: cell-based, human; details: TGF-β2 1.0 ng/ml; 24 hrs for the untreated culture
Excerpt: as §1

Molecule: TGF-β
- earliest time of snail up-regulation after TGF-β addition (α-TN4): 30 min

Molecule: TGF-β1: exogenous TGF-β1 (R&D Systems), growth factor used to induce EMT
- amount of type I collagen in culture medium and cell lysate (ELISA) (ARPE-19 cells [1]): increase
- Snail mRNA (Northern blot) ([2]; 8 h, not in Smad3-null cells): de novo expression of Snail mRNA
- TGF-β1 mRNA expression (autoinduction) ([2]; 24 h, vs non-treated wild-type, not in Smad3-null cells): enhanced expression of TGF-β1 mRNA
- cell morphology (phase-contrast microscopy) ([2]; 24 h, Smad3-null cells retained epithelial monolayer): spindle-shaped, fibroblastic appearance
- E-cadherin and α-SMA by dual immunofluorescence ([2]; 24 h, not seen in Smad3-null cells): Marked reduction of E-cadherin and de novo expression of α-SMA

Molecule: TGF-β2: exogenous TGF-β2 growth factor; porcine or human recombinant depending on experiment
- amount of type I collagen in culture medium and cell lysate (ELISA) (ARPE-19 cells [1]): increase
- PDGF-AB production (ELISA) (ARPE-19 cells [1]; TGF-β2 1.0 ng/ml): significantly increased
- concentration of PDGF-BB in culture medium (ELISA) (ARPE-19 cells [1]; TGF-β2 1.0 ng/ml, 96 hrs): approximately 500 pg/ml
- PDGF-B protein expression (Western blotting) (ARPE-19 cells [1]; TGF-β2 1.0 ng/ml, beginning about 48-72 hrs after addition): time-dependent up-regulation
- PDGF-BB protein secreted into the culture medium, increase above control cultures (ELISA) (ARPE-19 cells [1]; TGF-β2 1.0 ng/ml, confluent cultures): over 2 fold
- expression of TGF-β1 in medium (ELISA) (ARPE-19 cells [1]; exogenous TGF-β2, 48 hr): significant increase
- growth of the cells (MTT assay) (ARPE-19 cells [3]): inhibited
- lens epithelium morphology and EMT markers (lumican, αSMA, collagen type I) (lens epithelium; 10 days, WT lenses): multilayer of cells of a fibroblastic morphology
- expression of lumican (lens epithelium; day 5, WT lenses): up-regulated expression of lumican
- αSMA expression [4]: express αSMA
- αSMA expression (ARPE-19 cells [5]; TGF-β2 for 72 hr): clusters of αSMA positive cells
- time of highest level of nuclear translocation of Smad3 after addition of TGF-β2 (ARPE-19 cells [5]; immunofluorescence, no longer detectable at 24 hr): 1 h
- time to phosphorylation of Smads2/3 after TGF-β2 exposure (Western blotting) (ARPE-19 cells [5]; remained activated up to 48 hrs): ≤ 30 min
- αSMA expression in wounded pigment epithelium (RPE cells): expresses αSMA faintly at 24 hr and then clearly at 48 hr
- time to closure of the defect in wounded monolayer (ARPE-19 cells [6]): ≤ 12 h

B1: PDGF-BB: exogenous PDGF-BB, a potent mitogen, 5.0 ng/ml (protein, UniProt P01127 82-190, looked up)
Platelet-derived growth …: SLGSLTIAEPAMIAECKTRTEVFEISRRLIDRTNANFLVWPPCVEVQRCSGCCNNRNVQCRPTQVQLRPVQVRKIEIVRKKPIFKKATVTLEDHLACKCETVAAARPVT
modifications: homodimer PDGF-BB
- growth of the cells (MTT assay) (ARPE-19 cells [3]): enhanced

— patent US20060040253A1, “Use of Smad3 inhibitor in the treatment of fibrosis dependent on epithelial to mesenchymal transition as in the eye and kidney” (priority 2003, published 2006)
